Results taken from US10365286B2, “Chromophoric structures for lanthanide chelates” (RADIOMETER TURKU OY, priority 2014, dated 2019).

Key:
[1] = Luminescence measurements of Eu(III) chelates with the ligands; type: physicochemical; settings: Eu(III) complex of the ligand; 10 mM NH3-HCl buffer, pH 8.3
Procedure: FC=Flash chromatography. RT=room temperature. Microwave synthesizer was Initiator system (Biotage). ^1H NMR and ^13C NMR spectra were recorded on a Bruker AVANCE 500 DRX (Bruker, Karlsruhe, Germany) by using SiMe4 as internal standard and chemical shifts δ are in ppm. Mass spectra were recoded on a Voyager DE Pro (Applied Biosystems, Foster City, Calif.) mass spectrometer. HPLC runs were performed by Dionex's Ultimate 3000 system including Dionex's Ultimate 3000 Diode Array Detector. The used column was ThermoHypersil 150×4 mm 5μ Hypersil® ODS. Used eluents were 100 mM TEAA and CH3CN. Runs were performed by using an eluent gradient starting from 75% H2O, 20% 100 mM TEAA and 5% CH3CN and within 30 min to 30% H2O, 20% TEAA and 50% CH3CN. For the HPLC, sample concentration was aprox. 1 mg of chelate in 1 ml water. The sampling volume was 20-25 μl. The instrumentation, measurement and calculation principles for the molar absorptivities (ε), excitation maxima (λexc), luminescence lifetimes (τ), quantum yields (Φ), and triplet stage energies (T) see e.g. Räsänen, M., et al., 2014, J. Luminescence, 146, 211-217.
The luminescence parameters for Eu(III) complexes with ligands 11, 12, 14, 27, 28, and 35 were measured in 10 mM NH3-HCl buffer, pH 8.3. The molar absorptivities (c), excitation maxima (λexc ), luminescence lifetimes (τ), quantum yields (Φ), calculated luminescence yields (ε×Φ) and triplet stage (T) are presented in Table 1.

[2] = Photo-physical properties of cTnI antibodies labelled with chelate; type: physicochemical
Procedure: The Tnl labeled antibodies were prepared as described in Example 61.
The measured photo-physical properties gave the excitation wavelengths (λexc)at 354 nm, a luminescence decay times (τ) of 460 μs molar absorptivities (c) of 142 000 cm^−1M^−1 and luminescence yields (εΦ) of 10 500 cm^−1M^− for the labelled cTnls with the chelate 66 in 50 mM TRIS buffer (pH 7.75)
Dry measurements gave the luminescence yield of 16 500 cm^−1M^−1, which represents estimated luminescence yields based on the signal measurements after dry immunoassay done as described in the Example 61.

[3] = Photo-physical properties of chelates conjugated to taurine; type: physicochemical; settings: 50 mM TRIS buffer (pH 7.75)
Procedure: The prepared isothiocyante activated chelates (65 and 79) were conjugated to taurine as described above in Example 68. The products were purified with semi-preparative reversed phase HPLC (RP-18 column). After the product fractions were evaporated the residues were dissolved in 50 mM TRIS buffer.
The measured photo-physical properties excitation wavelengths (λexc), luminescence decay times (τ), molar absorptivities (ε), estimated luminescence yields (εΦ) of the novel chelates (66 and 80) in 50 mM TRIS buffer (pH 7.75) are in the Table 3. The nine dentate label {2,2′,2″,2′″-{[2-(4-isothiocyanato-phenyl)ethylimino]bis(methylene)bis{4-{[4-(α-galactopyranoxy)phenyl]-ethynyl}bis(methylenenitrilo)}tetrakis(acetato)}-europium(III) (von Loden, P., et al., 2003, Anal. Chem. 75, 3193) was used as a reference label.

cTnI = assay: Model cTnI immunoassay with chelate-labelled detection antibodies; settings: for Abs max: antibody labelled with the chelate
Procedure: Labeling was performed in 10 mM botate buffer, pH 8.6-9.0 using 30-fold molar excess of chelates. Reactions were normally carried out overnight at +4° C. or at room temperature. Labeled antibodies were purified on Superfex 200 HR 10/30 or Superdex 200 HiLoad 26/60 gel filtration columns using Tris-saline-azide […], 9.0 g/L NaCl, and 0.5 g/L NaN3), pH 7.75 as an elution buffer. The fractions containing the antibody were pooled and the europium concentrations measured against europium calibrator. The purified antibody comjugate and the labeling ratio (i.e. chelates per protein) were quantified by calculating the protein yield or by measureing the absorbance at 280 nm and subtracting the absorption caused by the added chelate.
An earlier published nine dentate label {2,2′,2″,2′″-{[2-(4-isothiocyanato-phenyl)ethylimino]bis(methylene)bis{4-{[4-(α-galactopyranoxy)phenyl]ethynyl}-pyridine-bis(methylenenitrilo)}tetrakis(acetato)}europium(III) (von Loden, P., et al., 2003, Anal. Chem. 75, 3193) was used as a reference label.
Two labels 49 and 54 were tested in a model cTnl assay. The cTnl immunoassays were performed by using biotinylated capture cTnl antibodies together with the labelled cTnl detection antibodies described above and according to the main principles described in published method (von Loden, P., et al., 2003, Anal. Chem. 75, 3193). The combined assay/wash buffer contained 5 mmol HEPES, 2.1 g/L NaCl, 0.1 mmol EDTA, 0.055 g/L Tween 20 and 1 g/L Gernall II, pH 7.75. The capture biotinylated antibodies were pre-incubated in assay wells. The standards followed by the detection label antibody diluted in 20 μl and 10 μl assay buffer, respectively, were applied to the wells. After one hour incubation at 36 C, the wells were washed, dried and measured.

[4] = labelled cTnI antibodies, 50 mM TRIS buffer (pH 7.75)

calculated luminescence yield ε × Φ [1]	excitation maximum λexc [1]	luminescence lifetime τ [1]	molar absorptivity ε [1]	quantum yield Φ [1]	triplet stage T [1]	further results	SMILES
4 200 cm^−1M^−1	342 nm	355 μs	38 200 cm^−1M^−1	0.11	19 200 cm^−1		O=C(O)CN(CC(=O)O)Cc1cc(C#Cc2ccc3c(c2)C(CC(=O)O)(CC(=O)O)c2ccccc2-3)cc(CN(CC(=O)O)CC(=O)O)n1 [Compound 14]
3 500 cm^−1M^−1	328 nm	390 μs	35 000 cm^−1M^−1	0.10	20 100 cm^−1		O=C(O)CN(CC(=O)O)Cc1cc(-c2ccc3c(c2)C(CC(=O)O)(CC(=O)O)c2ccccc2-3)cc(CN(CC(=O)O)CC(=O)O)n1 [Compound 12]
1 800 cm^−1M^−1	293 nm	385 μs	26 950 cm^−1M^−1	0.067	21 600 cm^−1		O=C(O)CN(CC(=O)O)Cc1cc(C#Cc2ccccc2)cc(CN(CC(=O)O)CC(=O)O)n1 [Ref ligand, 2,2′,2″,2′″-[(4-phenylethynylpyridine-2,6-diyl)bis(methylenenitrilo)]tetrakis-(acetic acid), reference compound]
4 800 cm^−1M^−1	323 nm	380 μs	104 000 cm^−1M^−1	0.046	20 000 cm^−1		O=C(O)CN(CC(=O)O)Cc1cc(-c2ccc3c(c2)Cc2ccccc2-3)cc(CN(CC(=O)O)CC(=O)O)n1 [Compound 11]
						luminescence yield, dry measurements ([2]; estimated from signal measurements after dry immunoassay): 16 500 cm^−1M^−1; excitation wavelength λexc [2, 4]: 354 nm; luminescence decay time τ [2, 4]: 460 μs; luminescence yield εΦ [2, 4]: 10 500 cm^−1M^−; molar absorptivity [2, 4]: 142 000 cm^−1M^−1; estimated luminescence yield ε x Φ [3]: 8 700 cm^−1M^−1; excitation wavelength λexc [3]: 346 nm; luminescence decay time τ [3]: 540 μs; molar absorptivity ε [3]: 100 000 cm^−1M^−1	O=C([O-])COc1cc(NC(=S)NCCS(=O)(=O)[O-])ccc1C#Cc1cc(CN(CC(=O)[O-])Cc2cc(C#Cc3ccc4c(c3)C(CC(=O)[O-])(CC(=O)[O-])c3ccccc3-4)cc(C(=O)[O-])n2)nc(CN(CC(=O)[O-])Cc2cc(C#Cc3ccc4c(c3)C(CC(=O)[O-])(CC(=O)[O-])c3ccccc3-4)cc(C(=O)[O-])n2)c1.[Eu+3].[Na+].[Na+].[Na+].[Na+].[Na+].[Na+].[Na+] [Compound 66]
						Abs max (cTnI; First test): 348 nm; excitation after coupled in protein (cTnI; label coupled to protein, broad excitation): around 350 nm	O=C([O-])CN(CC(=O)[O-])Cc1cc(C#Cc2ccc3c(c2)C(CC(=O)[O-])(CC(=O)[O-])c2ccccc2-3)cc(CN(CCc2ccc(N=C=S)cc2)Cc2cc(C#Cc3ccc4c(c3)C(CC(=O)[O-])(CC(=O)[O-])c3ccccc3-4)cc(CN(CC(=O)[O-])CC(=O)[O-])n2)n1.[Eu+3].[Na+].[Na+].[Na+].[Na+].[Na+] [Compound 49]
						estimated luminescence yield ε x Φ [3]: 5 600 cm^−1M^−1; excitation wavelength λexc [3]: 354 nm; luminescence decay time τ [3]: 290 μs; molar absorptivity ε [3]: 105 000 cm^−1M^−1	O=C([O-])COc1cc(OCC(=O)[O-])c(C#Cc2cc(CN(CC(=O)[O-])Cc3cc(C#Cc4ccc5c(c4)C(CC(=O)[O-])(CC(=O)[O-])c4cc(NC(=S)NCCS(=O)(=O)[O-])ccc4-5)cc(CN(CC(=O)[O-])Cc4cc(C#Cc5c(OCC(=O)[O-])cc(OCC(=O)[O-])cc5OCC(=O)[O-])cc(C(=O)[O-])n4)n3)nc(C(=O)[O-])c2)c(OCC(=O)[O-])c1.[Eu+3].[Na+].[Na+].[Na+].[Na+].[Na+].[Na+].[Na+].[Na+].[Na+].[Na+] [Compound 80]
						Abs max (cTnI; Second test): 327 nm	O=C([O-])CN(CC(=O)[O-])Cc1cc(-c2ccc3c(c2)C(CC(=O)[O-])(CC(=O)[O-])c2ccccc2-3)cc(CN(CCc2ccc(N=C=S)cc2)Cc2cc(-c3ccc4c(c3)C(CC(=O)[O-])(CC(=O)[O-])c3ccccc3-4)cc(CN(CC(=O)[O-])CC(=O)[O-])n2)n1.[Eu+3].[Na+].[Na+].[Na+].[Na+].[Na+] [Compound 54]
